This note sets out measurements from patent US9856216B2, “Compounds as TNIK, IKKε and TBK1 inhibitors and pharmaceutical composition comprising same” (GREEN CROSS CORPORATION, priority 2015, dated 2018).

Counter-ions that a name gives are not always drawn.

The target of the first experiment is T1, TNIK (Homo sapiens, UniProt Q9UKE5).
T1 construct: purchased Promega V4158
T1 sequence (Q9UKE5 1-367 limits assumed): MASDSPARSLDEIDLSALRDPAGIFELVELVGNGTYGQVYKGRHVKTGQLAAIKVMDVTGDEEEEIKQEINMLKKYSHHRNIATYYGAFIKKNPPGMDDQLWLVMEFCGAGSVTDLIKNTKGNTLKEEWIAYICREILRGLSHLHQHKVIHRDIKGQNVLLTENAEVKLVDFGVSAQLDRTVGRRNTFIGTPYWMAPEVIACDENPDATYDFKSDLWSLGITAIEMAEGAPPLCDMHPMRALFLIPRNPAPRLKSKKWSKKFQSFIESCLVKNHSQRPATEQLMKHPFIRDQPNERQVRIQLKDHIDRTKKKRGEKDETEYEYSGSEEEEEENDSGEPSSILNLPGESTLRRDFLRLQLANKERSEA
Description: ADP-Glo Kinase Assay, inhibition activity on TNIK. The experiment is classed as biochemical.
Details: not given
As to the method:
The inhibition activities on TNIK, IKKε and TBK1 were measured by a luminometer, TNIK/IKKε/TBK1 Kinase Enzyme System (Promega, Ca# V4158; Invitrogen, PR8031B, Promega, Ca# V3991) and ADP-Glo Kinase Assay using ADP-Glo™ Kinase Analysis Kit (Promega, Ca# V9101) and a kinase reaction buffer [40 mM Tris(pH 7.5), 20 mM MgCl2, 0.1 mg/mL BSA] in accordance with the manufacturer's protocol.
(In ADP-Glo the light output rises with the ADP produced.)
For `CN(C)CCCNc1ccc(C(=O)Nc2ccc(-c3cccc(F)c3F)c3c2C(=O)NC3)cc1` [Example 368, N-(7-(2,3-difluorophenyl)-3-oxoisoindolin-4-yl)-4-((3-(dimethylamino)propyl)amino)benzamide], the “TNIK (μM)” value was “Insoluble”.

In the case of `O=C(Nc1ccc(-c2cccs2)c2c1C(=O)NC2)c1ccc(NCCO)cc1` [Example 371, 4-((2-Hydroxyethyl)amino)-N-(3-oxo-7-(thiophen-2-yl)isoindolin-4-yl)benzamide], the “TNIK (μM)” value was “Insoluble”.

The same experiment, now with this note: read-out: TNIK.
Take `COc1ccccc1-c1ccc(NC(=O)c2ccc(NCCCCO)cc2)c2c1CNC2=O` [Example 356, 4-((4-Hydroxybutyl)amino)-N-(7-(2-methoxyphenyl)-3-oxoisoindolin-4-yl)benzamide]: the IC50 was found to be 250 nM.

For the compound `O=C(Nc1ccc(-c2ccccc2O)c2c1C(=O)NC2)c1ccc(NCCCCO)cc1` [Example 357, 4-((4-Hydroxybutyl)amino)-N-(7-(2-hydroxyphenyl)-3-oxoisoindolin-4-yl)benzamide], the IC50 amounted to 640 nM.

Consider `CNCCN(C)c1ccc(C(=O)Nc2ccc(-c3ccccc3)c3c2C(=O)NC3)cc1` [Example 358, 4-(Methyl(2-(methylamino)ethyl)amino)-N-(3-oxo-7-phenylisoindolin-4-yl)benzamide], for which the IC50 came to 1100 nM.

For the compound `O=C(Nc1ccc(-c2cccc(F)c2F)c2c1C(=O)NC2)c1ccc(NCCN2CCOCC2)cc1` [Example 359, N-(7-(2,3-difluorophenyl)-3-oxoisoindolin-4-yl)-4-((2-morpholinoethyl)amino)benzamide], the IC50 turned out to be 170 nM.

`O=C(Nc1ccc(-c2ccccc2)c2c1C(=O)NC2)c1ccc(NCCN2CCCCC2)cc1` [Example 360, N-(3-oxo-7-phenylisoindolin-4-yl)-4-((2-(piperidin-1-yl)ethyl)amino)benzamide]: the IC50 came out at 320 nM.

For the compound `COc1ccccc1-c1ccc(NC(=O)c2ccc(NCCN3CCCCC3)cc2)c2c1CNC2=O` [Example 361, N-(7-(2-methoxyphenyl)-3-oxoisoindolin-4-yl)-4-((2-(piperidin-1-yl)ethyl)amino)benzamide], the IC50 is 170 nM.

Consider `CN(C)CCNc1ccc(C(=O)Nc2ccc(-c3ccccc3)c3c2C(=O)NC3)cc1` [Example 362, 4-((2-(Dimethylamino)ethyl)amino)-N-(3-oxo-7-phenylisoindolin-4-yl)benzamide], for which the IC50 is 490 nM.

In the case of `O=C(Nc1ccc(-c2ccccc2)c2c1C(=O)NC2)c1ccc(NCCCN2CCCC2)cc1` [Example 363, N-(3-oxo-7-phenylisoindolin-4-yl)-4-((3-(pyrrolidin-1-yl)propyl)amino)benzamide], the IC50 amounted to 330 nM.

Consider `O=C(Nc1ccc(-c2cccc(F)c2F)c2c1C(=O)NC2)c1ccc(NCCN2CCCC2)cc1` [Example 364, N-(7-(2,3-difluorophenyl)-3-oxoisoindolin-4-yl)-4-((2-(pyrrolidin-1-yl)ethyl)amino)benzamide], for which the IC50 is 180 nM.

Consider `O=C(Nc1ccc(-c2cccc(F)c2F)c2c1C(=O)NC2)c1ccc(NCCN2CCCC2)cc1` [Example 365, N-(7-(2,3-difluorophenyl)-3-oxoisoindolin-4-yl)-4-((2-(pyrrolidin-1-yl)ethyl)amino)benzamide hydrochloride], for which the IC50 came out at 170 nM.

As for `O=C(Nc1ccc(-c2cccc(F)c2F)c2c1C(=O)NC2)c1ccc(NCCCN2CCCC2)cc1` [Example 366, N-(7-(2,3-difluorophenyl)-3-oxoisoindolin-4-yl)-4-((3-(pyrrolidin-1-yl)propyl)amino)benzamide hydrochloride], the IC50 was determined as 170 nM.

Turning to `CN(C)CCNc1ccc(C(=O)Nc2ccc(-c3cccc(F)c3F)c3c2C(=O)NC3)cc1` [Example 367, N-(7-(2,3-difluorophenyl)-3-oxoisoindolin-4-yl)-4-((2-(dimethylamino)ethyl)amino)benzamide], the IC50 was found to be 280 nM.

In the case of `O=C(Nc1ccc(-c2ccccc2)c2c1C(=O)NC2)c1ccc(NCCN2CCCCCC2)cc1` [Example 369, 4-((2-(Azepan-1-yl)ethyl)amino)-N-(3-oxo-7-phenylisoindolin-4-yl)benzamide], the IC50 worked out at 560 nM.

`O=C(Nc1ccc(-c2ccccc2)c2c1C(=O)NC2)c1ccc(NCCCN2CCCCC2)cc1` [Example 370, N-(3-oxo-7-phenylisoindolin-4-yl)-4-((3-(piperidin-1-yl)propyl)amino)benzamide]: the IC50 is 510 nM.

Turning to `COCCNc1ccc(C(=O)Nc2ccc(-c3cccs3)c3c2C(=O)NC3)cc1` [Example 372, 4-((2-Methoxyethyl)amino)-N-(3-oxo-7-(thiophen-2-yl)isoindolin-4-yl)benzamide], the IC50 turned out to be 1360 nM.

For `CN(C)CCNc1ccc(C(=O)Nc2ccc(-c3cccs3)c3c2C(=O)NC3)cc1` [Example 373, 4-((2-(Dimethylamino)ethyl)amino)-N-(3-oxo-7-(thiophen-2-yl)isoindolin-4-yl)benzamide], the IC50 was 400 nM.

Regarding `O=C(Nc1ccc(-c2cccs2)c2c1C(=O)NC2)c1ccc(NCCN2CCCCC2)cc1` [Example 374, N-(3-oxo-7-(thiophen-2-yl)isoindolin-4-yl)-4-((2-(piperidin-1-yl)ethyl)amino)benzamide], the IC50 was found to be 480 nM.

Regarding `O=C(Nc1ccc(-c2cccs2)c2c1C(=O)NC2)c1ccc(NCCN2CCOCC2)cc1` [Example 375, 4-((2-Morpholinoethyl)amino)-N-(3-oxo-7-(thiophen-2-yl)isoindolin-4-yl) benzamide], the IC50 amounted to 540 nM.

On to `O=C(Nc1ccc(-c2cccc3ncoc23)c2c1C(=O)NC2)c1ccc(NCCN2CCCC2)cc1` [Example 376, N-(7-(benzo[d]oxazol-7-yl)-3-oxoisoindolin-4-yl)-4-((2-(pyrrolidin-1-yl)ethyl)amino)benzamide], for which the IC50 is 72 nM.

On to `Cc1nc2cccc(-c3ccc(NC(=O)c4ccc(NCCN5CCCC5)cc4)c4c3CNC4=O)c2o1` [Example 377, N-(7-(2-methylbenzo[d]oxazol-7-yl)-3-oxoisoindolin-4-yl)-4-((2-(pyrrolidin-1-yl)ethyl)amino)benzamide], for which the IC50 came out at 360 nM.

In the case of `CN1CCN(CCNc2ccc(C(=O)Nc3ccc(-c4cccs4)c4c3C(=O)NC4)cc2)CC1` [Example 378, 4-((2-(4-Methylpiperazin-1-yl)ethyl)amino)-N-(3-oxo-7-(thiophen-2-yl)isoindolin-4-yl)benzamide], the IC50 came to 130 nM.

Regarding `CN1CCN(CCNc2ccc(C(=O)Nc3ccc(-c4ccccc4)c4c3C(=O)NC4)cc2)CC1` [Example 379, 4-((2-(4-Methylpiperazin-1-yl)ethyl)amino)-N-(3-oxo-7-phenylisoindolin-4-yl)benzamide], the IC50 came to 350 nM.

Take `O=C(Nc1ccc(-c2ccccc2)c2c1C(=O)NC2)c1ccc(NCCO)cc1` [Example 380, 4-((2-Hydroxyethyl)amino)-N-(3-oxo-7-phenylisoindolin-4-yl) benzamide]: the IC50 came to 230 nM.

`CN(C)CCCNc1ccc(C(=O)Nc2ccc(-c3ccccc3)c3c2C(=O)NC3)cc1` [Example 381, 4-((3-(Dimethylamino)propyl)amino)-N-(3-oxo-7-phenylisoindolin-4-yl) benzamide]: the IC50 amounted to 310 nM.

`O=C(Nc1ccc(-c2ccccc2)c2c1C(=O)NC2)c1ccc(NCCCO)cc1` [Example 382, 4-((3-Hydroxypropyl)amino)-N-(3-oxo-7-phenylisoindolin-4-yl) benzamide]: the IC50 is 330 nM.

On to `O=C(Nc1ccc(-c2ccccc2)c2c1C(=O)NC2)c1ccc(NCCCCO)cc1` [Example 383, 4-((4-Hydroxybutyl)amino)-N-(3-oxo-7-phenylisoindolin-4-yl) benzamide], for which the IC50 was 380 nM.

Consider `O=C(Nc1ccc(-c2cc3ccccc3o2)c2c1C(=O)NC2)c1ccc(NCCN2CCCC2)cc1` [Example 384, N-(7-(benzofuran-2-yl)-3-oxoisoindolin-4-yl)-4-((2-(pyrrolidin-1-yl)ethyl)amino)benzamide], for which the IC50 came to 1110 nM.

Regarding `O=C(Nc1ccc(-c2ccc3ncccc3c2)c2c1C(=O)NC2)c1ccc(NCCN2CCCC2)cc1` [Example 385, N-(3-oxo-7-(quinolin-6-yl)isoindolin-4-yl)-4-((2-(pyrrolidin-1-yl)ethyl)amino)benzamide], the IC50 came out at 780 nM.

On to `O=C(Nc1ccc(-c2cccc3ncccc23)c2c1C(=O)NC2)c1ccc(NCCN2CCCC2)cc1` [Example 386, N-(3-oxo-7-(quinolin-5-yl)isoindolin-4-yl)-4-((2-(pyrrolidin-1-yl)ethyl)amino)benzamide], for which the IC50 is 99 nM.

On to `O=C(Nc1ccc(-c2ccnc3ccccc23)c2c1C(=O)NC2)c1ccc(NCCN2CCCC2)cc1` [Example 387, N-(3-oxo-7-(quinolin-4-yl)isoindolin-4-yl)-4-((2-(pyrrolidin-1-yl)ethyl)amino)benzamide], for which the IC50 stood at 33 nM.

For the compound `O=C(Nc1ccc(C(=O)O)c2c1C(=O)NC2)c1ccc(F)cc1` [Example 388, 7-(4-Fluorobenzamido)-1-oxoisoindoline-4-carboxylic acid], the IC50 worked out at 3890 nM.

Take `CNC(=O)c1ccc(NC(=O)c2ccc(F)cc2)c2c1CNC2=O` [Example 389, 7-(4-Fluorobenzamido)-N-methyl-1-oxoisoindoline-4-carboxamide]: the IC50 is more than 20000 nM.

As for `CNC(=O)c1ccc(NC(=O)c2ccc(NCCN3CCCC3)cc2)c2c1CNC2=O` [Example 390, N-methyl-1-oxo-7-(4-((2-(pyrrolidin-1-yl)ethyl)amino)benzamido)isoindoline-4-carboxamide], the IC50 amounted to 3870 nM.

For the compound `O=C(Nc1ccc(C(=O)N2CCCC2)c2c1C(=O)NC2)c1ccc(F)cc1` [Example 391, 4-Fluoro-N-(3-oxo-7-(pyrrolidine-1-carbonyl)isoindolin-4-yl) benzamide], the IC50 is more than 20000 nM.

With `O=C(Nc1ccc(C(=O)N2CCCC2)c2c1C(=O)NC2)c1ccc(NCCN2CCCC2)cc1` [Example 392, N-(3-oxo-7-(pyrrolidine-1-carbonyl)isoindolin-4-yl)-4-((2-(pyrrolidin-1-yl)ethyl)amino)benzamide], the IC50 was more than 20000 nM.
